PubChem BioAssay AID248 (DTP/NCI, 2004)
Where “and” joins values, the source holds several entries; their conditions need not be identical. Identical values can stand only once. Inconclusive results and toxic doses are left out. No stated cut-off is given here; in the data, active means T/C of 150% or more; inactive means T/C below 125%.

Test system: L1210 leukemia ip in BDF1 mice, survival T/C
Assay: NCI In Vivo Anticancer Drug Screen. Data for tumor model L1210 Leukemia (intraperitoneal) in B6D2F1 (BDF1) mice
Details: endpoint: mean survival time, higher = longer survival
Procedure, shortened: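 Antitumor effect is assessed in tumor-bearing animals. Survival in the compound arm is compared with a vehicle-dosed control arm and expressed as their quotient.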

[1] = dose: 100.0 mg/kg/injection, schedule: Q01DX009 (ip), vehicle: Klucel (hydroxypropylcellulose) (HPC)
[2] = dose: 100.0 mg/kg/injection, schedule: Q04DX003 (ip), vehicle: Klucel (hydroxypropylcellulose) (HPC)
[3] = dose: 200.0 mg/kg/injection, schedule: Q04DX003 (ip), vehicle: Klucel (hydroxypropylcellulose) (HPC)
[4] = dose: 400.0 mg/kg/injection, schedule: Q04DX003 (ip), vehicle: Klucel (hydroxypropylcellulose) (HPC)
[5] = dose: 200.0 mg/kg/injection, schedule: Q01DX009 (ip), vehicle: Klucel (hydroxypropylcellulose) (HPC)
[6] = dose: 400.0 mg/kg/injection, schedule: Q01DX009 (ip), vehicle: Klucel (hydroxypropylcellulose) (HPC)
[7] = dose: 50.0 mg/kg/injection, schedule: Q04DX003 (ip), vehicle: other
[8] = dose: 100.0 mg/kg/injection, schedule: Q04DX003 (ip), vehicle: other
[9] = dose: 200.0 mg/kg/injection, schedule: Q04DX003 (ip), vehicle: other
[10] = dose: 25.0 mg/kg/injection, schedule: Q01DX001 (ip), vehicle: saline with Tween-80
[11] = dose: 50.0 mg/kg/injection, schedule: Q01DX001 (ip), vehicle: saline with Tween-80

Measured: T/C

N#Cc1cc2c(N)[nH]nc2nc1N
inactive: dose: 25.0 mg/kg/injection, schedule: Q01DX009 (ip), vehicle: Klucel (hydroxypropylcellulose) (HPC) 89 % of control | dose: 50.0 mg/kg/injection, schedule: Q01DX009 (ip), vehicle: Klucel (hydroxypropylcellulose) (HPC) 93 % of control | [1] 86 % of control and 90 % of control | [2] 98 % of control | [3] 95 % of control | [4] 101 % of control

Cc1cccc(CC(O)(CC(O)(c2ccccc2)c2ccccc2)c2ccccc2)c1 (stereo not given)
inactive: dose: 100.0 mg/kg/injection, schedule: Q04DX003 (ip), vehicle: acetone 96 % of control | dose: 200.0 mg/kg/injection, schedule: Q04DX003 (ip), vehicle: acetone 98 % of control | dose: 400.0 mg/kg/injection, schedule: Q04DX003 (ip), vehicle: acetone 97 % of control

CC(OC(=O)c1ccccc1)c1ccccc1 (stereo not given)
inactive: [1] 94 % of control | [2] 101 % of control | [5] 100 % of control | [3] 103 % of control | [6] 96 % of control | [4] 101 % of control

c1ccc(Nc2nc3ccccc3o2)cc1
inactive: dose: 100.0 mg/kg/injection, schedule: Q01DX001 (ip), vehicle: Klucel (hydroxypropylcellulose) (HPC) 93 % of control | [1] 92 % of control | dose: 200.0 mg/kg/injection, schedule: Q01DX001 (ip), vehicle: Klucel (hydroxypropylcellulose) (HPC) 89 % of control | [5] 95 % of control | dose: 400.0 mg/kg/injection, schedule: Q01DX001 (ip), vehicle: Klucel (hydroxypropylcellulose) (HPC) 86 % of control | [6] 94 % of control

CCCCN(CCCC)CC(O)c1ccccc1 (stereo not given)
inactive: dose: 25.0 mg/kg/injection, schedule: Q01DX005 (ip), vehicle: saline 112 % of control | dose: 25.0 mg/kg/injection, schedule: Q01DX009 (ip), vehicle: saline 95 % of control | dose: 25.0 mg/kg/injection, schedule: Q04DX002 (ip), vehicle: saline with Tween-80 102 % of control | dose: 50.0 mg/kg/injection, schedule: Q01DX005 (ip), vehicle: saline 108 % of control | dose: 50.0 mg/kg/injection, schedule: Q01DX009 (ip), vehicle: saline 107 % of control | dose: 50.0 mg/kg/injection, schedule: Q04DX002 (ip), vehicle: saline with Tween-80 106 % of control | dose: 100.0 mg/kg/injection, schedule: Q01DX005 (ip), vehicle: saline 101 % of control | dose: 100.0 mg/kg/injection, schedule: Q04DX002 (ip), vehicle: saline with Tween-80 93 % of control

Cc1ccc(S(=O)(=O)N=S(Cc2ccccc2)Cc2ccccc2)cc1
inactive: dose: 50.0 mg/kg/injection, schedule: Q01DX001 (ip), vehicle: saline sonified 103 % of control | dose: 100.0 mg/kg/injection, schedule: Q01DX001 (ip), vehicle: saline sonified 108 % of control | dose: 200.0 mg/kg/injection, schedule: Q01DX001 (ip), vehicle: saline sonified 95 % of control

Cc1ccc(NC(=O)Nc2cccc3ccccc23)c(C)c1
inactive: [2] 91 % of control | [5] 88 % of control | [3] 95 % of control | [6] 92 % of control | [4] 91 % of control

CC(O)COCc1ccccc1 (stereo not given)
inactive: dose: 100.0 mg/kg/injection, schedule: Q01DX009 (ip), vehicle: saline 103 % of control | dose: 100.0 mg/kg/injection, schedule: Q04DX003 (ip), vehicle: saline 94 % of control | dose: 200.0 mg/kg/injection, schedule: Q01DX009 (ip), vehicle: saline 94 % of control | dose: 200.0 mg/kg/injection, schedule: Q04DX003 (ip), vehicle: saline 94 % of control | dose: 400.0 mg/kg/injection, schedule: Q01DX009 (ip), vehicle: saline 97 % of control | dose: 400.0 mg/kg/injection, schedule: Q04DX003 (ip), vehicle: saline 90 % of control

O=[N+]([O-])c1cccc(S/N=C/c2ccccc2)c1
inactive: [2] 100 % of control | [3] 95 % of control | [4] 105 % of control

CCCCCCCCCCCCCCCCCCn1cnc2c(=S)nc[nH]c21
inactive: dose: 12.5 mg/kg/injection, schedule: Q01DX005 (ip), vehicle: other 106 % of control | dose: 25.0 mg/kg/injection, schedule: Q01DX005 (ip), vehicle: other 98 % of control | dose: 50.0 mg/kg/injection, schedule: Q01DX005 (ip), vehicle: other 95 % of control | dose: 100.0 mg/kg/injection, schedule: Q01DX005 (ip), vehicle: other 104 % of control | dose: 200.0 mg/kg/injection, schedule: Q01DX005 (ip), vehicle: other 90 % of control

Cc1cccc(OC(=O)Nc2cccc3ccccc23)c1
inactive: [1] 93 % of control | [5] 87 % of control | [6] 96 % of control

CCCCCCCCCCCCCCCCCCNC(=S)N/N=C/c1ccc(Cl)cc1Cl
inactive: [7] 91 % of control | dose: 100.0 mg/kg/injection, schedule: Q01DX001 (ip), vehicle: other 95 % of control | [8] 96 % of control | dose: 200.0 mg/kg/injection, schedule: Q01DX001 (ip), vehicle: other 86 % of control and 92 % of control | [9] 93 % of control

C=CCNc1ccc([N+](=O)[O-])cc1[N+](=O)[O-]
inactive: dose: 100.0 mg/kg/injection, schedule: Q01DX001 (ip), vehicle: steriod suspending solution 91 % of control | dose: 200.0 mg/kg/injection, schedule: Q01DX001 (ip), vehicle: steriod suspending solution 98 % of control

CN(C)N=Nc1ccccc1C(=O)O
inactive: dose: 0.78 mg/kg/injection, schedule: Q01DX009 (ip), vehicle: Klucel (hydroxypropylcellulose) (HPC) 105 % of control | dose: 1.56 mg/kg/injection, schedule: Q01DX009 (ip), vehicle: Klucel (hydroxypropylcellulose) (HPC) 97 % of control | dose: 3.12 mg/kg/injection, schedule: Q01DX009 (ip), vehicle: Klucel (hydroxypropylcellulose) (HPC) 103 % of control | dose: 6.25 mg/kg/injection, schedule: Q01DX009 (ip), vehicle: Klucel (hydroxypropylcellulose) (HPC) 103 % of control | dose: 11.0 mg/kg/injection, schedule: Q01DX009 (ip), vehicle: saline with Tween-80 109 % of control | dose: 12.5 mg/kg/injection, schedule: Q01DX001 (ip), vehicle: saline with Tween-80 95 % of control | dose: 12.5 mg/kg/injection, schedule: Q01DX009 (ip), vehicle: saline with Tween-80 123 % of control | dose: 12.5 mg/kg/injection, schedule: Q04DX003 (ip), vehicle: saline with Tween-80 101 % of control | dose: 17.0 mg/kg/injection, schedule: Q01DX009 (ip), vehicle: saline with Tween-80 107 % of control | [10] 98 % of control | dose: 25.0 mg/kg/injection, schedule: Q01DX009 (ip), vehicle: saline with Tween-80 115 % of control | dose: 25.0 mg/kg/injection, schedule: Q04DX003 (ip), vehicle: other 115 % of control | dose: 25.0 mg/kg/injection, schedule: Q04DX003 (ip), vehicle: saline with Tween-80 104 % of control | dose: 37.0 mg/kg/injection, schedule: Q01DX009 (ip), vehicle: saline with Tween-80 91 % of control | [11] 101 % of control | [7] 105 % of control | dose: 50.0 mg/kg/injection, schedule: Q04DX003 (ip), vehicle: saline with Tween-80 103 % of control | [8] 111 % of control | [9] 113 % of control | dose: 400.0 mg/kg/injection, schedule: Q04DX003 (ip), vehicle: other 100 % of control

CCCCCCCCCC(C)CCCCC (stereo not given)
inactive: [10] 93 % of control | [11] 98 % of control | dose: 100.0 mg/kg/injection, schedule: Q01DX001 (ip), vehicle: saline with Tween-80 95 % of control and 97 % of control | dose: 200.0 mg/kg/injection, schedule: Q01DX001 (ip), vehicle: saline with Tween-80 98 % of control
